The target of test [1] is T1, HCV polymerase H544 1a 3X (UniProt P27958).
T1 construct: fused on or other part: 6 His tag at the C-terminus, for the BK (1b) enzyme
Put plainly: Assay of enzyme (HCV polymerase) inhibitory activity, H544 1a 3X. It is filed as biochemical.

The target in test [2] is T2, HCV polymerase H544 1b 3X (Hepatitis C virus genotype 1b, UniProt P26663).
T2 construct: a region encoding NS5B (J Virol 1991 March, 65(3), 1105-13, 544 amino acids after deletion of 47 amino acids on the C-terminal); 6 His (C); made in house; host or cells: Escherichia coli
Put plainly: Assay of enzyme (HCV polymerase) inhibitory activity, H544 1b 3X. The format is biochemical, HCV BK strain. The text has this:
The evaluation of the HCV polymerase inhibitory activity of the compound of the present invention is explained in the following. This polymerase is an enzyme coded for by the non-structural protein region called NS5B on the genome RNA of HCV (EMBO J., 15:12-22, 1996).
Using, as a template, a cDNA clone corresponding to the full length genome RNA of HCV BK strain obtained from the blood of a patient with hepatitis C, a region encoding NS5B (J Virol 1991 March, 65(3), 1105-13, 544 amino acids after deletion of 47 amino acids on the C-terminal) was amplified by PCR. The objective gene was prepared by adding a 6 His tag {base pair encoding 6 continuous histidine (His)} to the 3′ end thereof and transformed to Escherichia coli. The Escherichia coli capable of producing the objective protein was cultured. The obtained cells were suspended in a buffer solution and crushed in a microfluidizer. The supernatant was obtained by centrifugation and applied to various column chromatographys {mono-S, Sephacryl S-200 (Pharmacia)}, inclusive of metal chelate chromatography, to give a standard enzyme product.
Using a synthetic primer designed based on the sequence of HCV genomic 3′ untranslated region, a DNA fragment (148 bp) containing polyU and 3′X sequence was entirely synthesized and cloned into plasmid pBluescript SK II (+) (Stratagene). The cDNA encoding full length NS5B, which was prepared in i) above, was digested with restriction enzyme KpnI to give a cDNA fragment containing the nucleotide sequence of from the restriction enzyme cleavage site to the termination codon. This cDNA fragment was inserted into the upstream of 3′ untranslated region of the DNA in pBluescript SK II(+) and ligated. The about 450 bp inserted DNA sequence was used as a template in the preparation of substrate RNA. This plasmid was cleaved immediately after the 3′X sequence, linearized and purified by phenol-chloroform treatment and ethanol precipitation to give DNA.
RNA was synthesized (37° C., 3 hr) by run-off method using this purified DNA as a template, a promoter of pBluescript SK II(+), MEGAscript RNA synthesis kit (Ambion) and T7 RNA polymerase. DNase I was added and the mixture was incubated for 1 hr. The template DNA was removed by decomposition to give a crude RNA product. This crude product was treated with phenol-chloroform and purified by ethanol precipitation to give the objective substrate RNA.
This RNA was applied to formaldehyde denaturation agarose gel electrophoresis to confirm the quality thereof and preserved at −80° C.
A test substance (compound of the present invention) and a reaction mixture (30 μl) having the following composition were reacted at 25° C. for 90 min. 10% Trichloroacetic acid at 4° C. and 1% sodium pyrophosphate solution (150 μl) were added to this reaction mixture to stop the reaction. The reaction mixture was left standing in ice for 15 min to insolubilize RNA. This RNA was trapped on a glass filter (Whatman GF/C and the like) upon filtration by suction. This filter was washed with a solution containing 1% trichloroacetic acid and 0.1% sodium pyrophosphate, washed with 90% ethanol and dried. A liquid scintillation cocktail (Packard) was added and the radioactivity of RNA synthesized by the enzyme reaction was measured on a liquid scintillation counter.
The HCV polymerase inhibitory activity (IC50) of the compound of the present invention was calculated from the values of radioactivity of the enzyme reaction with and without the test substance.
The results are shown in Table 18, wherein each symbol means that IC50 falls within the following range.
Reaction mixture: HCV polymerase (0.5 μg/ml) obtained in i), substrate RNA (5 μg/ml) obtained in ii), ATP (50 μM), GTP (50 μM), CTP (50 μM), UTP (2 μM), [5,6-^3H] UTP (46 Ci/mmol (Amersham), 1 μCi) 20 mM Tris-HCl (pH 7.5), EDTA (1 mM), MgCl2 (5 mM), NaCl (50 mM), DTT (1 mM), BSA (0.01%)

The mark [3] stands for this setting: 25° C., 90 min, [5,6-3H]UTP incorporation, read-out: H544 1a 3X IC50.
Setting [4] is: read-out: H544 1a 3X IC50, 25° C., 90 min, [5,6-3H]UTP incorporation.

Counter-ions that a name gives are not always drawn. Like-named read-outs stand apart in the source and are kept apart here.

T2 sequence (P26663 2420-2963): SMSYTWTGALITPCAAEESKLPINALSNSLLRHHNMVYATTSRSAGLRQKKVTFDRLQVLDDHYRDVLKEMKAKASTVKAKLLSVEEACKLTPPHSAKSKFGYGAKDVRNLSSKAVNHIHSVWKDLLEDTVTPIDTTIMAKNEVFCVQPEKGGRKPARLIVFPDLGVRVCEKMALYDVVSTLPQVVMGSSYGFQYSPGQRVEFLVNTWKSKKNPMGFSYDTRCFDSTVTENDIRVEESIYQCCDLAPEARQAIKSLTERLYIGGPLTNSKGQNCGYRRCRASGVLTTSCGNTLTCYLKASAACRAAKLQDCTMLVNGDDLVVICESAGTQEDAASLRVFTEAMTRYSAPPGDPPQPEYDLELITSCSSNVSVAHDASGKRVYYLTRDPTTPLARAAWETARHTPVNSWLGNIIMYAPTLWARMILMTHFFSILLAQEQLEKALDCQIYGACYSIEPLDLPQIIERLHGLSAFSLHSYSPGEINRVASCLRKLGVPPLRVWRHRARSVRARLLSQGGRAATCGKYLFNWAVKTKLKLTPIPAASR

For the molecule `Cn1c(-c2ccc(OCc3ccccc3N3CCOCC3)cc2)c(C2CCCCC2)c2sc(C(=O)O)cc21` [Example 31, 6-cyclohexyl-4-methyl-5-[4-(2-morpholinobenzyloxy)phenyl]-4H-thieno[3,2-b]pyrrole-2-carboxylic acid hydrochloride], the IC50 in test [1] (setting [3]) and in test [2] was < 0.1 µM in each case.

For the molecule `COc1ccc(-c2c(C3CCCCC3)c3sc(C(=O)O)cc3n2CC(=O)NCc2ccccc2)cc1` [Example 32, 4-(benzylcarbamoylmethyl)-6-cyclohexyl-5-(4-methoxyphenyl)-4H-thieno[3,2-b]pyrrole-2-carboxylic acid], the IC50 in test [1] (setting [3]) and in test [2] was < 0.1 µM throughout.

With `COc1ccc(-c2c(C3CCCCC3)c3sc(C(=O)O)cc3n2CC(=O)NC(C)(C)C)cc1` [Example 33, 4-(tert-butylcarbamoylmethyl)-6-cyclohexyl-5-(4-methoxyphenyl)-4H-thieno[3,2-b]pyrrole-2-carboxylic acid], the IC50 in test [1] (setting [3]) was < 0.1 µM; in test [2], 0.1 to 1 µM.

Regarding `Cn1c(-c2ccc(OCc3ccc(N4CCCC4=O)cc3N3CCOCC3)cc2)c(C2CCCCC2)c2sc(C(=O)O)cc21` [Example 34, 6-cyclohexyl-4-methyl-5-{4-[2-morpholino-4-(2-oxopyrrolidin-1-yl)benzyloxy]phenyl}-4H-thieno[3,2-b]pyrrole-2-carboxylic acid hydrochloride], the IC50 in test [1] (setting [3]) and in test [2] was < 0.1 µM in each case.

With `Cn1c(-c2ccccc2OCc2ccccc2)c(C2CCCCC2)c2sc(C(=O)O)cc21` [Example 35, 5-(2-benzyloxyphenyl)-6-cyclohexyl-4-methyl-4H-thieno[3,2-b]pyrrole-2-carboxylic acid], the IC50 in test [1] (setting [3]) and in test [2] was 0.1 to 1 µM each time.

On to `CN(C)C(=O)Cn1c(-c2ccccc2OCc2ccccc2)c(C2CCCCC2)c2sc(C(=O)O)cc21` [Example 36, 5-(2-benzyloxyphenyl)-6-cyclohexyl-4-dimethylcarbamoylmethyl-4H-thieno[3,2-b]pyrrole-2-carboxylic acid], for which the IC50 in test [1] (setting [3]) and in test [2] was 0.1 to 1 µM throughout.

In the case of `CN(C)C(=O)Cn1c(-c2ccc(OC3CCCN(C(=O)OC(C)(C)C)C3)cc2)c(C2CCCCC2)c2sc(C(=O)O)cc21` (centres unmarked) [Example 37, 5-[4-(1-tert-butoxycarbonylpiperidin-3-yloxy)phenyl]-6-cyclohexyl-4-dimethylcarbamoylmethyl-4H-thieno[3,2-b]pyrrole-2-carboxylic acid], the IC50 in test [1] (setting [3]) and in test [2] was < 0.1 µM in each case.

Consider `CN(C)C(=O)Cn1c(-c2ccc(OCc3ccccc3N3CCOCC3)cc2)c(C2CCCCC2)c2sc(C(=O)O)cc21` [Example 38, 6-cyclohexyl-4-dimethylcarbamoylmethyl-5-[4-(2-morpholinobenzyloxy)phenyl]-4H-thieno[3,2-b]pyrrole-2-carboxylic acid], for which the IC50 in test [1] (setting [3]) and in test [2] was < 0.1 µM each time.

In the case of `CN(C)C(=O)Cn1c(-c2ccc(OC3CCN(C(=O)OC(C)(C)C)CC3)cc2)c(C2CCCCC2)c2sc(C(=O)O)cc21` [Example 39, 5-[4-(1-tert-butoxycarbonylpiperidin-4-yloxy)phenyl]-6-cyclohexyl-4-dimethylcarbamoylmethyl-4H-thieno[3,2-b]pyrrole-2-carboxylic acid], the IC50 in test [1] (setting [3]) was 0.1 to 1 µM; in test [2], < 0.1 µM.

`CN(C)CC(=O)Nc1ccc(N2CCOCC2)c(COc2ccc(-c3c(C4CCCCC4)c4sc(C(=O)O)cc4n3C)cc2)c1` [Example 40, 6-cyclohexyl-5-{4-[5-(2-dimethylaminoacetylamino)-2-morpholinobenzyloxy]phenyl}-4-methyl-4H-thieno[3,2-b]pyrrole-2-carboxylic acid dihydrochloride]: the IC50 in test [1] (setting [4]) and in test [2] was < 0.1 µM throughout.

Turning to `Cn1c(-c2ccc(OCc3cc(NC(=O)CN4CCOCC4)ccc3N3CCOCC3)cc2)c(C2CCCCC2)c2sc(C(=O)O)cc21` [Example 41, 6-cyclohexyl-4-methyl-5-{4-[2-morpholino-5-(2-morpholinoacetylamino)benzyloxy]phenyl}-4H-thieno[3,2-b]pyrrole-2-carboxylic acid dihydrochloride], the IC50 in test [1] (setting [4]) and in test [2] was < 0.1 µM in each case.

Turning to `CN(C)C(=O)Cn1c(-c2ccc(Oc3ccccc3)cc2)c(C2CCCCC2)c2sc(C(=O)O)cc21` [Example 42, 6-cyclohexyl-4-dimethylcarbamoylmethyl-5-(4-phenoxyphenyl)-4H-thieno[3,2-b]pyrrole-2-carboxylic acid], the IC50 in test [1] (setting [3]) and in test [2] was < 0.1 µM each time.

With `CN(C)CC(=O)N(C)c1ccc(N2CCOCC2)c(COc2ccc(-c3c(C4CCCCC4)c4sc(C(=O)O)cc4n3C)cc2)c1` [Example 43, 6-cyclohexyl-5-(4-{5-[N-(2-dimethylaminoacetyl)-N-methylamino]-2-morpholinobenzyloxy}phenyl)-4-methyl-4H-thieno[3,2-b]pyrrole-2-carboxylic acid dihydrochloride], the IC50 in test [1] (setting [4]) and in test [2] was < 0.1 µM in each case.

For the molecule `CC(C)(C)NC(=O)Cn1c(-c2ccc(OCc3ccccc3)cc2)c(C2CCCCC2)c2sc(C(=O)O)cc21` [Example 44, 5-(4-benzyloxyphenyl)-4-(tert-butylcarbamoylmethyl)-6-cyclohexyl-4H-thieno[3,2-b]pyrrole-2-carboxylic acid], the IC50 in test [1] (setting [3]) and in test [2] was 0.1 to 1 µM throughout.

Consider `O=C(O)c1cc2c(s1)c(C1CCCCC1)c(-c1ccc(OCc3ccccc3)cc1)n2Cc1ccccc1` [Example 45, 4-benzyl-5-(4-benzyloxyphenyl)-6-cyclohexyl-4H-thieno[3,2-b]pyrrole-2-carboxylic acid], for which the IC50 in test [1] (setting [3]) and in test [2] was 0.1 to 1 µM in each case.

With `CN(C)CCn1c(-c2ccc(OCc3ccccc3)cc2)c(C2CCCCC2)c2sc(C(=O)O)cc21` [Example 46, 5-(4-benzyloxyphenyl)-6-cyclohexyl-4-(2-dimethylaminoethyl)-4H-thieno[3,2-b]pyrrole-2-carboxylic acid], the IC50 in test [1] (setting [3]) and in test [2] was 0.1 to 1 µM in each case.

For the molecule `O=C(O)c1cc2c(s1)c(C1CCCCC1)c(-c1ccc(OCc3ccccc3)cc1)n2CCN1CCOCC1` [Example 47, 5-(4-benzyloxyphenyl)-6-cyclohexyl-4-(2-morpholinoethyl)-4H-thieno[3,2-b]pyrrole-2-carboxylic acid], the IC50 in test [1] (setting [3]) and in test [2] was 0.1 to 1 µM in each case.

Turning to `O=C(O)c1cc2c(s1)c(C1CCCCC1)c(-c1ccc(OCc3ccccc3)cc1)n2CC1CCCCC1` [Example 48, 5-(4-benzyloxyphenyl)-6-cyclohexyl-4-cyclohexylmethyl-4H-thieno[3,2-b]pyrrole-2-carboxylic acid], the IC50 in test [1] (setting [3]) and in test [2] was 0.1 to 1 µM in each case.

As to `COCCn1c(-c2ccc(OCc3ccccc3)cc2)c(C2CCCCC2)c2sc(C(=O)O)cc21` [Example 49, 5-(4-benzyloxyphenyl)-6-cyclohexyl-4-(2-methoxyethyl)-4H-thieno[3,2-b]pyrrole-2-carboxylic acid], the IC50 in test [1] (setting [3]) and in test [2] was 0.1 to 1 µM each time.
